The values that follow are results of earlier work, collected in patent publication US20180271827A1, “CANNABINOID COMPOSITIONS AND METHODS OF MAKING” (Pasenture, Inc., priority 2015, published 2018).

Entries after “also recorded” stand apart in the source; their conditions may differ.

The conditions of the first series: Table A, representative terpenes; properties or predicted properties.
Turning to `C=CC(C)(O)CCC=C(C)C` (stereo not drawn) [linalool], the Properties entry is “Sedative, Antidepressant, Anxiolytic, Immune; also recorded: potentiator”.

With `Cc1ccc(C(C)C)cc1` [p-cymene], the Properties result is “Antibiotic, Anticandidal, AChE inhibitor”.

With `CC1=CC[C@@H](C(C)(C)O)CC1` [a-terpineol], the Properties result is listed as “Sedative, Antibiotic, AChE inhibitor, Antioxidant,; also recorded: Antimalarial”.

In the case of `C=C(C)[C@H]1CC=C(C)CC1` [d-limonene], the Properties entry is “Antidepressant, Antimutagenic”.

Regarding `CC1=CCC2CC1C2(C)C` (stereo not drawn) [a-pinene], the Properties result was “Antiinflammatory, Bronchodilator, Stimulant,; also recorded: Antibiotic, Antineoplastic, AChE inhibitor”.

On to `C=CC(=C)CCC=C(C)C` [ß-myrcene], for which the Properties result is reported as “Analgesic. Antiinflammatory, Antibiotic,; also recorded: Antimutagenic”.

For `CC(C)=C1CC[C@@H](C)CC1=O` [pulegone], the Properties entry is recorded as “Antipyretic”.

Consider `C=C1CC/C=C(/C)CC[C@@H]2[C@@H]1CC2(C)C` [ß-caryophyllene], for which the Properties result is recorded as “Antiinflammatory, Cytoprotective (gastric mucosa),; also recorded: Antimalarial”.

Take `CC1=CCC(O)(C(C)C)CC1` (stereo not drawn) [terpineol-4-ol]: the Properties result is given as “AChE inhibitor, Antibiotic”.

In the case of `CC12CCC(CC1)C(C)(C)O2` [1,8-cineole (eucalyptol), 1,8-cineole], the Properties entry is listed as “AChE inhibitor, Increases cerebral, blood flow,; also recorded: Stimulant, Antibiotic, Antiviral, Antiinflammatory,; also recorded: Antinociceptive”.

Staying with this series, now noted: Table B, representative cannabinoids; properties or predicted properties.
Turning to `CCCCCc1cc(O)c2c(c1)OC(C)(C)[C@@H]1CCC(C)=C[C@@H]21` [9-tetrahydrocannabinol (THC), 9-tetrahydrocannabinol, reference compound], the Properties result is reported as “Euphoriant, Analgesic,; also recorded: Antiinflammatory, Antioxidant,; also recorded: Antiemetic”.

As for `CCCCCc1cc(O)c(C/C=C(\C)CCC=C(C)C)c(O)c1` [cannabigerol (CBG), cannabigerol], the Properties entry is listed as “Antiinflammatory, Antibiotic,; also recorded: Antifungal”.

As to `CCCCCc1cc(O)c2c(c1)OC(C)(C)[C@@H]1CC=C(C)C[C@@H]21` [?-8-tetrahydrocannabinol (?-8-THC), ?-8-tetrahydrocannabinol], the Properties result is recorded as “Resembles ?-9-THC, Less psychoactive,; also recorded: More stable Antiemetic”.

Turning to `C=C(C)[C@@H]1CCC(C)=C[C@H]1c1c(O)cc(CCCCC)cc1O` [cannabidiol (CBD), cannabidiol, reference compound], the Properties result is “Antispasmodic; also recorded: Anxiolytic, Analgesic, Antipsychotic,; also recorded: Antiinflammatory, Antioxidant,”.

Turning to `CCCCCc1cc(O)c2c(c1)OC(C)(CCC=C(C)C)C=C2` (stereo not drawn) [cannabichromene (CBC), cannabichromene], the Properties entry was “Antiinflammatory, Antibiotic,; also recorded: Antifungal”.

Turning to `CCCCCc1cc(O)c2c(c1)OC(C)(C)c1ccc(C)cc1-2` [Cannabinol (CBN), Cannabinol], the Properties entry is on record as “Oxidation, breakdown, product,; also recorded: Sedative, Antibiotic”.

Take `CCCc1cc(O)c2c(c1)OC(C)(C)[C@@H]1CCC(C)=C[C@@H]21` [tetrahydrocannabivarin (THCV), tetrahydrocannabivarin]: the Properties entry is “Analgesic, Euphoriant”.

The series is the same for the next values; noted with them: Table C, flavonoid and phytosterol components derived from cannabis plants; properties or predicted properties.
Turning to `COc1cc(-c2cc(=O)c3c(O)c(C/C=C(\C)CCC=C(C)C)c(O)cc3o2)ccc1O` [cannflavin A], the Properties result was “COX inhibitor, LO inhibitor”.

With `CC[C@H](CC[C@@H](C)[C@H]1CC[C@H]2[C@@H]3CC=C4C[C@@H](O)CC[C@]4(C)[C@H]3CC[C@]12C)C(C)C` [ß-sitosterol], the Properties entry was “Antiinflammatory, 5-a-reductase, inhibitor”.

On to `O=c1cc(-c2ccc(O)cc2)oc2cc(O)cc(O)c12` [apigenin], for which the Properties result is “Anxiolytic, Antiinflammatory, Estrogenic”.

For the molecule `O=c1c(O)c(-c2ccc(O)c(O)c2)oc2cc(O)cc(O)c12` [quercetin], the Properties result was “Antioxidant, Antimutagenic, Antiviral,; also recorded: Antineoplastic”.
